# From publication PMC12337130 (Nature microbiology, 2025)
# B1: GST-vBcl-2 (1–146) with N67D/V117A (domain or fragment)
# chain: MDEDVLPGEVLAIEGIFMACGLNEPEYLYHPLLSPIKLYITGLMRDKESLFEAMLANVRFHSTTGIDQLGLSMLQVSGDGNMNWGRALAILTFGSFVAQKLSNEPHLRDFALAVLPAYAYEAIGPQWFRARGGWRGLKAYCTQVLT
# What was measured:
# vBcl-2–NM23-H2 complex = vBcl-2–NM23-H2 complex (Human gammaherpesvirus 8, UniProt Q76RI8, N67D/V117A); experiment: HTRF protein-protein interaction assay; format: binding
# vBcl-2 = vBcl-2 (Human gammaherpesvirus 8, UniProt Q76RI8, N67D/V117A); experiment: surface plasmon resonance; format: binding
# His-NM23-H2 = His-NM23-H2 (human, UniProt P22392 1-152); experiment: AlphaScreen or HTRF
# [1] = molecular target: B1; experiment: AlphaScreen or HTRF
molecule,measurement,setting,value
"Cc1nc(Nc2nc3ccccc3o2)[nH]c(=O)c1C [VBNI-1, 2-(Benzo[d]oxazol-2-ylamino)-5,6-dimethylpyrimidin-4(3H)-one]",IC50,vBcl-2–NM23-H2 complex,~64 nM
same,Kd,vBcl-2,875 nM
B1,binding result,His-NM23-H2,binds
EDIIRNIARHLAQVGDSMDR [BID BH3 peptide],binding result,[1],binds
